Laboratory results as given in publication PMC3954873, “Enhanced Thermal Stability and Hydrolytic Ability of Bacillus subtilis Aminopeptidase by Removing the Thermal Sensitive Domain in the Non-Catalytic Region” (PLoS ONE, 2014).

Experiments:
BSAP = target: T1, BSAP (Bacillus subtilis, UniProt P25152); assay: steady-state hydrolysis kinetics, non-linear regression; format: biochemical; settings: free enzyme; assay as in previous study, conditions not printed here
T1 construct: gene ywaD; host B. subtilis WB600; purified as in previous study
T1 sequence (P25152 32-455): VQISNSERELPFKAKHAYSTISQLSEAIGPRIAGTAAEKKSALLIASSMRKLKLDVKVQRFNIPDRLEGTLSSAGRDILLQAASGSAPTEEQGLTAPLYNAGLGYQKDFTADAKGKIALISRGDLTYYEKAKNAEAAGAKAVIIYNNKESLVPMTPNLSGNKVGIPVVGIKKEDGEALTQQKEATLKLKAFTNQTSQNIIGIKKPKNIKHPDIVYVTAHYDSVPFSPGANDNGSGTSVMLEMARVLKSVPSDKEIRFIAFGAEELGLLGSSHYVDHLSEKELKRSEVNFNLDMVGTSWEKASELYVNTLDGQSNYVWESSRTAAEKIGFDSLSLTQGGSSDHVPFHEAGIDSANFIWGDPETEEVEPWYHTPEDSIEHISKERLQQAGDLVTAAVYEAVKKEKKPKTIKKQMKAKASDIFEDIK
Text: steady-state hydrolysis kinetics, non-linear regression on BSAP

BSAP-ΔPA = target: T2, BSAP-ΔPA (Bacillus subtilis, UniProt P25152, DEL101-225, form not given); assay: as above; format: biochemical; settings: free enzyme; assay as in previous study, conditions not printed here
T2 construct: gene ywaD; protease-associated domain (101-225) deleted by inverse PCR; 330 residues before signal peptide removal; plasmid PMA5, host B. subtilis WB600; purified from culture supernatant
T2 sequence (P25152 other isoform, or with tags, fused parts or gaps DEL101-225): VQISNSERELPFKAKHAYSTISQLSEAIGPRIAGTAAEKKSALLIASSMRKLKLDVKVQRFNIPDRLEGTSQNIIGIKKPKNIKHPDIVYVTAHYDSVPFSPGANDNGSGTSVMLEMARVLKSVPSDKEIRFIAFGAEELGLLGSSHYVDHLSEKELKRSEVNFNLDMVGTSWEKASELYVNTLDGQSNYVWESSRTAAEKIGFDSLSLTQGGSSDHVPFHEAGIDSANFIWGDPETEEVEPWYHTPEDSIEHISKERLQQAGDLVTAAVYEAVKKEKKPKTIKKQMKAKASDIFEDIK
Text: steady-state hydrolysis kinetics, non-linear regression on BSAP-ΔPA

In the case of `CC(C)C[C@H](N)C(=O)Nc1ccc([N+](=O)[O-])cc1` [Leu-pNA], the “K m” value (BSAP) is reported as 2.52 ± 0.11 mmol and the “K m” value (BSAP-ΔPA) is reported as 2.43 ± 0.23 mmol.
